Test results from ChEMBL document CHEMBL3217669, “Activation of a silent phenazine biosynthetic gene cluster reveals a novel natural product and a new resistance mechanism against phenazines” (Medchemcomm, 2012).
Active and inactive are the calls of the source. No cut-off for these calls is given here.

Columns and labels:
Type in all cases: functional, organism-based
Bacillus subtilis = assay: Antibacterial activity against Bacillus subtilis ATCC 14893 assessed as growth inhibition at 0.5 umol after overnight incubation
Escherichia coli = assay: Antibacterial activity against Escherichia coli K-12 assessed as growth inhibition at 0.5 umol after overnight incubation
Streptomyces coelicolor = assay: Antibacterial activity against Streptomyces coelicolor M512 assessed as growth inhibition up to 0.5 umol after 48 hrs

Row | Structure (SMILES) | growth inhibition (GI) (Bacillus subtilis) | growth inhibition (GI) (Escherichia coli) | growth inhibition (GI) (Streptomyces coelicolor)
1 | NC(=O)CC[C@H](NC(=O)c1cccc2nc3ccccc3nc12)C(=O)O | inactive | inactive | inactive
2 | O=C(O)c1cccc2nc3ccccc3nc12 | Active | inactive | inactive
